The values that follow come from patent US12473263B2, “Bicyclic inhibitors of CBX chromodomains” (Icahn School of Medicine At Mount Sinai, priority 2019, dated 2025).

One assay concerns PC3 cells. Kind of assay: MTT assay for cell viability. Format: cell-based. To be noted: doses of 0, 1, 2.5, 3.75, 5.0, 8.0 micromolar. Here is the method:
The MTT assay is used to measure cellular metabolic activity as an indicator of cell viability, proliferation and cytotoxicity. This colorimetric assay is based on the reduction of a yellow tetrazolium salt (3-(4,5-dimethylthiazol-2-yl)-2,5-diphenyltetrazolium bromide or MTT) to purple formazan crystals by metabolically active cells. The viable cells contain NAD(P)H-dependent oxidoreductase enzymes which reduce the MTT to formazan. The insoluble formazan crystals are dissolved using 1-Propanol as a solubilization solution and the resulting purple colored solution is quantified by measuring absorbance at 570 nanometers (nm) using a multi-well spectrophotometer.
Protocol for MTT Assay: 100,000 PC3 cells were seeded per-well (CRL-1435, ATCC) for each dose of treatment 24 hours before treatment. Cells were quantitated with Countess II Cell Counter (AMQAX1000, Thermofisher Scientific). Cells were maintained at 37° C. with 5% CO2. SMAPs (dissolved in DMSO) were diluted to a stock concentration of 10 mM. Dilutions to the needed concentrations were made in DMEM (SH30022FS, Hyclone, GE Healthcare Life Sciences). Cells were treated with appropriate concentrations of compound. After 24 hours, MTT solution (M5655-1G, Sigma-Aldrich) was added to cells. Formazan crystals of metabolically active cells were dissolved with 1-Propanol (A414-500, ThermoFisher Scientific) and the solution was measured by absorbance at 570 nm (SpectraMax M5e, Molecular Devices).
Examples 1-3, 7-31, and 33-41 have also been studied in the above-described MTT assay for cell viability at four dose treatments (0, 2.5, 5.0, 10.0 micromolar).
In general terms: Tetrazolium assays rely on reduction of a dye to a coloured formazan, in cell work by metabolically active cells.

A further assay concerns the target CBX7ChD (Homo sapiens (Human), UniProt O95931). Conditions: cited from earlier work.
Assay [1] has as its system p16INK4a in prostate cancer cells. Conditions: cited from earlier work.
Assay [2] deals with (Homo sapiens, UniProt O95931). As to the kind of experiment: Fluorescence anisotropy (FP) competition binding assay. Conditions: 10 nM FAM-ANRIL as probe. Here is the method: Fluorescence Anisotropy Binding Assay
Expression and purification of the first bromodomain (BrD1) of human BRD4 in poly-His tag form was performed using a procedure described in the literature [See Zeng et al. Structure 16, 643-652 (2008) and Zhang et al., J Biol Chem 287, 28840-28851 (2012).] The protein was purified by using affinity chromatography on a nickel-IDA column (Invitrogen), followed by the removal of poly-His tag by thrombin cleavage.
Measurements were obtained after 1 hour incubation of the fluorescent ligand and the protein at 25° C. with Safire 2 microplate reader (Tecan). In the assay, fluorescent ligand concentration was ≤2Kd, and protein concentration was set at which 50-80% of fluorescent ligand is bound. Dissociation constant of a competing ligand was calculated with the correction to Cheng-Prussoff equation introduced by Nicolovska-Coleska and colleagues [Nikolovska-Coleska, Z. et al., Anal Biochem 332, 261-273 (2004). Assuming one-site competitive binding model, the equation used to calculate K1's from IC50 values recovered from fitting data using Prism:
where [I50] is the concentration of free inhibitor at 50% inhibition, [L50], the concentration of free labeled ligand at 50% inhibition, and [P0], concentration of free protein at 0% inhibition. Note that Kd for each protein-probe pair is the limit of resolvable K1 in a competition assay.
For orientation: Fluorescence polarisation rises when a labelled molecule tumbles more slowly, as on binding a larger partner.

Where [3] appears, read: Homo sapiens, PC-3, 24 hours treatment.

Chain of (Homo sapiens, UniProt O95931) (O95931 whole entry, looked up): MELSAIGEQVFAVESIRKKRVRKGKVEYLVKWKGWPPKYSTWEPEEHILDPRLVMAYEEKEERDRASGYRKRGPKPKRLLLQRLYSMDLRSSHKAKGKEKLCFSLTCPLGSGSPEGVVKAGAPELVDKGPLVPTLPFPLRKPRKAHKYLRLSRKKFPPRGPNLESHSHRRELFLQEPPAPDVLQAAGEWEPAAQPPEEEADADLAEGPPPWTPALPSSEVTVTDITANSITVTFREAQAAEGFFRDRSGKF
Chain of CBX7ChD (O95931 11-69): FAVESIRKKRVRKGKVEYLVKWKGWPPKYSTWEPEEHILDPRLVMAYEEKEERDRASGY

Consider `Cc1ccccc1Cn1c(=N)n(CC(O)c2ccc(Cl)c(Cl)c2)c2ccc(Cl)cc21` (stereo not drawn) [Example 3, 2-(5-chloro-2-imino-3-(2-methylbenzyl)-2,3-dihydro-1H-benzo[d]imidazol-1-yl)-1-(3,4-dichlorophenyl)ethan-1-ol], for which, in the assay on PC3 cells (setting [3]), the IC50 (commonly the concentration that inhibits the measured activity by half) came out at 776 nM. In other words, the sub-micromolar range.
In turn, `Cc1ccccc1Cn1c(=N)n(CC(O)c2ccc(Cl)c(Cl)c2)c2ccc(F)cc21` (stereo not drawn) [Example 2, 1-(3,4-dichlorophenyl)-2-(5-fluoro-2-imino-3-(2-methylbenzyl)-2,3-dihydro-1H-benzo[d]imidazol-1-yl)ethan-1-ol] had an IC50 in the assay on PC3 cells (setting [3]) of 884 nM. This IC50 and that of the compound before are within 1.5-fold of each other.
Still for that read-out and setting: then `N=c1n(Cc2cn(Cc3ccccc3F)nn2)c2ccccc2n1CC(O)c1ccc(Cl)c(Cl)c1` (stereo not drawn) [Example 10, 1-(3,4-dichlorophenyl)-2-(3-((1-(2-fluorobenzyl)-1H-1,2,3-triazol-4-yl)methyl)-2-imino-2,3-dihydro-1H-benzo[d]imidazol-1-yl)ethan-1-ol], with 1840 nM; and `N=c1n(Cc2cn(-c3ccccc3)nn2)c2cc(Cl)ccc2n1CC(O)c1ccc(Cl)c(Cl)c1` (stereo not drawn) [Example 35, 2-(5-chloro-2-imino-3-((1-phenyl-1H-1,2,3-triazol-4-yl)methyl)-2,3-dihydro-1H-benzo[d]imidazol-1-yl)-1-(3,4-dichlorophenyl)ethanol], with 1120 nM.
In the case of `Cc1ccccc1Cn1c(=N)n(CC(O)c2ccc(Cl)c(Cl)c2)c2ccccc21.Cl` (stereo not drawn) [MS351], the “selectivity for CBX7ChD (over CBX2/4/6/8)” value on CBX7ChD is reported as “selective for CBX7ChD”. The “de-repression of p16INK4a” value in assay [1] is given as “de-repress”.
For the compound `C#CCn1c(=N)n(CC(O)c2ccc(Cl)c(Cl)c2)c2ccccc21` (stereo not drawn) [Example 6, 1-(3,4-dichlorophenyl)-2-(2-imino-3-(prop-2-yn-1-yl)-2,3-dihydro-1H-benzo[d]imidazol-1-yl)ethan-1-ol], the Kd (in general, the concentration at which binding is half-saturated) in assay [2] worked out at 1.53 µM.
Consider `Cc1ccc(Cn2cc(Cn3c(=N)n(CC(O)c4ccc(Cl)c(Cl)c4)c4ccccc43)nn2)cc1` (stereo not drawn) [Example 9, 1-(3,4-dichlorophenyl)-2-(2-imino-3-((1-(4-methylbenzyl)-1H-1,2,3-triazol-4-yl)methyl)-2,3-dihydro-1H-benzo[d]imidazol-1-yl)ethan-1-ol], for which binding in assay [2] was characterised by a dissociation constant (Kd) of 0.108 µM. Besides, the IC50 with PC3 cells (24 hours treatment) was determined as 900 nM.
